# Values quoted from earlier work in patent US12163116B2, “Automated bioreactor with foam collector” (OHIO STATE INNOVATION FOUNDATION, priority 2018, dated 2024).
# Experiments:
# L. innocua = details: against L. innocua; taught by prior art
# [1] = system: Gram-positive bacteria including species of Listeria, Clostridium, Lactobacillus, Staphylococcus, Bacillus
# [2] = compared to commercially available lantibiotics such as nisin
substance,measurement,setting,value
paenibacillin,minimum inhibitory concentration,L. innocua,4 µg/mL
same,antimicrobial potency,[1],potent against Gram-positive bacteria
same,water solubility,,highly water soluble
same,temperature and pH stability,[2],relatively high temperature and pH stability
